Assay results from publication PMC6076275, “Novel Arginine-containing Macrocyclic MMP Inhibitors: Synthesis, ^99mTc-labeling, and Evaluation” (Scientific Reports, 2018).
In brackets after ≈: the same amount, converted by molar mass. Like-named read-outs stand apart in the source and are kept apart here.

What was measured:
Water solubility = format: physicochemical; conditions: described as good water solubility
rhMMP-12 [1] = molecular target: T1, rhMMP-12 (Homo sapiens, UniProt P39900); parameters: method as in PMID 28360209; conditions: value marked with citation; cited from earlier work
T1 construct: purchased R&D Systems (Minneapolis, MN, USA)
T1 sequence (P39900 106-470): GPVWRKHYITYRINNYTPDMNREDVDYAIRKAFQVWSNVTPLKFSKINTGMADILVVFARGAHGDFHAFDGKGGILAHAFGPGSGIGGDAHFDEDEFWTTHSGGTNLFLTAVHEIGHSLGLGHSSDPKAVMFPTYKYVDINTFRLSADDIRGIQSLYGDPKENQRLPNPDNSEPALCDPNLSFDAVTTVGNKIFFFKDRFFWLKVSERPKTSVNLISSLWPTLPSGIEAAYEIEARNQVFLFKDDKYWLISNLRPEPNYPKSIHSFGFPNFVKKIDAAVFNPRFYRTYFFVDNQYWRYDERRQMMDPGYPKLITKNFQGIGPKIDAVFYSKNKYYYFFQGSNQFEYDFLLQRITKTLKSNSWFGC

[2] = molecular target: Recombinant Human TACE/ADAM17 (Homo sapiens, UniProt P78536); test: TACE inhibition assay, fluorogenic peptide substrate
Chain of Recombinant Human TACE/ADAM17 (P78536 215-824): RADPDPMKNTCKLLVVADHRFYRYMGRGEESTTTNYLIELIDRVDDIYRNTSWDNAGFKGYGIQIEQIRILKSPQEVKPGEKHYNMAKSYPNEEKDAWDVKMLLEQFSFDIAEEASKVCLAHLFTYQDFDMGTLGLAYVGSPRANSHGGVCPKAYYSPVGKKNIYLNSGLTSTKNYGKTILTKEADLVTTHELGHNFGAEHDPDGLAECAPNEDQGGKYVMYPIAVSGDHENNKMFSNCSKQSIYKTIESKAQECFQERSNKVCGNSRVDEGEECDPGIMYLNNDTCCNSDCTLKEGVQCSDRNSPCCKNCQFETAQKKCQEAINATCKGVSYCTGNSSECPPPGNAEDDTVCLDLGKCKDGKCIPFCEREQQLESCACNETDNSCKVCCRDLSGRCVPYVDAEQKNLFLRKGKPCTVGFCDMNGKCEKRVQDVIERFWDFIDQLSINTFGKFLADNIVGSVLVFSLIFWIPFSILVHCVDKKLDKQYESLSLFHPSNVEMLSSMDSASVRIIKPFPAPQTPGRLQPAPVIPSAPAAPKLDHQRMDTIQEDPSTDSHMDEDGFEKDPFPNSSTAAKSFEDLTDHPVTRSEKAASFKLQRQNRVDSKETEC

[3] = background statement, no own test described; cited from earlier work
rhMMP-13 = molecular target: T2, rhMMP-13 (Homo sapiens, UniProt P45452); test: MMP inhibition assay, fluorogenic substrate cleavage kinetics; format: biochemical
T2 construct: purchased R&D Systems (Minneapolis, MN, USA)
Description: (§1) MMP inhibition assays were carried out based on the kinetic effects of an inhibitor on the MMP-mediated catalytic cleavage of a fluorogenic substrate, namely Mca-Lys-Pro-Leu-Gly-Leu-Dpa-Ala-Arg-NH2, as reported by others previously[9],[23],[28]. In the first set of studies, the inhibitory effect of RYM was evaluated against 5 activated recombinant human (rh)MMPs, including rhMMP-2, rhMMP-7, rhMMP-9, rhMMP-12, and rhMMP-13.
(§2) The recombinant human MMPs (rhMMPs) including rhMMP-2, rhMMP-7, rhMMP-9, rhMMP-12, and rhMMP-13 were purchased from R&D Systems (Minneapolis, MN, USA). A buffer consisting of 50 mM Tris, 10 mM CaCl2, 150 mM NaCl, 0.05% Brij-35 (w/v) (pH 7.5, […]) was used for all the MMP assays. A mixture of the rhMMPs (500 ng, 9 µL in assay buffer) and p-aminophenylmercuric acetate (APMA, 1 µL, 10.0 mM in DMSO) was incubated at 37 °C (1 h/rhMMP-2, 2 h/rhMMP-7, 24 h/rhMMP-9, 4 h/rhMMP-12, and 2 h/rhMMP-13) according to the procedures described by R&D Systems. The activated MMPs were diluted to 500 µL in the assay buffer for inhibition assays. The assays were carried out in 96-well black non-binding surface microplates (Fisher Scientific). Seventy microliter (for inhibitor wells) and 80 µL (control wells) of the assay buffer were first added into each well as designed, followed by adding 10 µL (10 ng) of the activated MMP solutions into each well. The inhibitor solutions at 4 different concentrations (10 µL each well) were added into the corresponding inhibitor wells in the microplate which was then swirled at room temperature for 30 min. Ten microliter of the fluorogenic MMP substrate solutions (R&D SYSTEMS®) at 4 different concentrations (20.0, 30.0, 40.0, and 50.0 µM) in assay buffer were added into each well to make a total volume of 100 µL. […] Finally, the competitive inhibition constants (Ki value) were calculated from the mean velocity values, and related substrate (S) and inhibitor (I) concentrations using GraphPad Prism 6 by the following equation for competitive inhibition, where Vmax is the maximal velocity, the KM Michaelis-Menten constant: v=Vmax[S]/KM(1+[I]/Ki)+[S]

rhMMP-7 = molecular target: T3, rhMMP-7 (Homo sapiens, UniProt P09237); test: as above; format: biochemical; conditions: mean ± SD of three experiments
T3 construct: purchased R&D Systems (Minneapolis, MN, USA)
T3 sequence (P09237 95-267): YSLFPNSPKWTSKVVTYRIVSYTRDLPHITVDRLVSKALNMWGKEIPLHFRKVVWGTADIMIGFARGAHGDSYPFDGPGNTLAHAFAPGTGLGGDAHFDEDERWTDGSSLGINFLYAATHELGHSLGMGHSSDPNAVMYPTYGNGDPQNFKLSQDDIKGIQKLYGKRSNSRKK
Description: as §1, with “rhMMP-13. […] RYM also had potent MMP inhibition with Ki values at nM concentrations.” for “rhMMP-13.”
The recombinant human MMPs (rhMMPs) including rhMMP-2, rhMMP-7, rhMMP-9, rhMMP-12, and rhMMP-13 were purchased from R&D Systems (Minneapolis, MN, USA). […] The microplate fluorescence was measured at 320 nm (excitation) and 405 nm (emission) wavelengths for 30 min (1.44 min intervals, sensitivity 100, shaking intensity 4 and duration 30 s) by a fluorescent plate reader (BIO-TEK/Synergy HT) to generate the fluorescence kinetic curves and related mean velocity values (v), i.e. relative fluorescence units per min (RFU/min). Finally, the competitive inhibition constants (Ki value) were calculated from the mean velocity values, and related substrate (S) and inhibitor (I) concentrations using GraphPad Prism 6 by the following equation for competitive inhibition, where Vmax is the maximal velocity, the KM Michaelis-Menten constant: v=Vmax[S]/KM(1+[I]/Ki)+[S]

rhMMP-12 [4] = molecular target: T1, rhMMP-12; test: as above; format: biochemical; conditions: mean ± SD of three experiments
Description: as §1, with “rhMMP-13. […] RYM also had potent MMP inhibition with Ki values at nM concentrations.” for “rhMMP-13.”
Next, we evaluated the effect of ^99mTc-labeling on RYM MMP inhibition, using rhMMP-12 as a representative enzyme. A solution of ^99mTc-RYM1 prepared from 2 µg of RYM1 was decayed at −80 °C for two days, lyophilized, and re-dissolved in saline for MMP inhibition assays.
The recombinant human MMPs (rhMMPs) including rhMMP-2, rhMMP-7, rhMMP-9, rhMMP-12, and rhMMP-13 were purchased from R&D Systems (Minneapolis, MN, USA). […] The microplate fluorescence was measured at 320 nm (excitation) and 405 nm (emission) wavelengths for 30 min (1.44 min intervals, sensitivity 100, shaking intensity 4 and duration 30 s) by a fluorescent plate reader (BIO-TEK/Synergy HT) to generate the fluorescence kinetic curves and related mean velocity values (v), i.e. relative fluorescence units per min (RFU/min). […]

rhMMP-2 = molecular target: T4, rhMMP-2 (Homo sapiens, UniProt P08253); test: as above; format: biochemical; conditions: mean ± SD of three experiments
T4 construct: purchased R&D Systems (Minneapolis, MN, USA)
T4 sequence (P08253 110-660): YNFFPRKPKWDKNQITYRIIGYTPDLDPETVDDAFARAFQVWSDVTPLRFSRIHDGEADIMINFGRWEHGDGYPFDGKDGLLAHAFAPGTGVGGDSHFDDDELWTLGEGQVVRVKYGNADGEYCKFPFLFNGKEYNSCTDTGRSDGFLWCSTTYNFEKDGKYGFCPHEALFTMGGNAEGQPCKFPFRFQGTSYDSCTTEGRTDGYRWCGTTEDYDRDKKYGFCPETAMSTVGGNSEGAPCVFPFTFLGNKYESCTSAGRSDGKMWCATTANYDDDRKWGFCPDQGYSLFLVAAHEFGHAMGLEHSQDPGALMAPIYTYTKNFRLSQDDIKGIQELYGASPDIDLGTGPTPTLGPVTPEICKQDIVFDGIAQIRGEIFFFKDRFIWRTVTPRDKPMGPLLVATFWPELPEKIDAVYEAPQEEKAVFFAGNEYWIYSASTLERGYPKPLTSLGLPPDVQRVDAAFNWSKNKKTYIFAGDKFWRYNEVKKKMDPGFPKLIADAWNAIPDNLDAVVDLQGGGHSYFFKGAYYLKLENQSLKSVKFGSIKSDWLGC
Description: as §1, §2

rhMMP-9 = molecular target: T5, rhMMP-9 (Homo sapiens, UniProt P14780); test: as above; format: biochemical; conditions: mean ± SD of three experiments
T5 construct: purchased R&D Systems (Minneapolis, MN, USA)
T5 sequence (P14780 107-707 limits assumed): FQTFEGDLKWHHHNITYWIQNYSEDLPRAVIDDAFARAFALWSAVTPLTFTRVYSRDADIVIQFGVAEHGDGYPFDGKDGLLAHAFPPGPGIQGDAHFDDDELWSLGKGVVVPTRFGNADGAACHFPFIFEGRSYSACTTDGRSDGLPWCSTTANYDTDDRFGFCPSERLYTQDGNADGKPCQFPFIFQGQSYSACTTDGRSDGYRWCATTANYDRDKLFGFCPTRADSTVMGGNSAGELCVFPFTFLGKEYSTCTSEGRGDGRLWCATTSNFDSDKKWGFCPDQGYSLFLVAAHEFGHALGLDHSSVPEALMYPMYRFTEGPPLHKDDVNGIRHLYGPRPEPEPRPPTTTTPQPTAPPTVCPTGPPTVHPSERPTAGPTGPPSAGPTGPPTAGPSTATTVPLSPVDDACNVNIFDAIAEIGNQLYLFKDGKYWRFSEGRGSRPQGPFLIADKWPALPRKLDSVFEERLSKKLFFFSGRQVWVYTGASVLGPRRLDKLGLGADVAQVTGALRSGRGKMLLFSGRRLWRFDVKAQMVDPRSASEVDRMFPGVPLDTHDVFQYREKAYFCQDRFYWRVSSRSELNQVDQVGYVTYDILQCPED
Description: as §1, §2

| solubility (Water solubility) [µg/mL] | Ki [2] [nM] | Ki (rhMMP-7) [nM] | Ki (rhMMP-12 [4]) [nM] | SMILES | water solubility (in words) [3] | also measured |
| --- | --- | --- | --- | --- | --- | --- |
| 10000 (≈ 13.8 mM) | 8.6 ± 2.2 |  |  | CC(C)CC1C(=O)NC(C(=O)NC(CCCNC(=N)N)C(=O)NCCNC(=O)c2ccc(NN)nc2)Cc2ccc(cc2)OCCCC1C(=O)NO [RYM1, (6 S,7 R,10 S)-N^10-((S)-5-guanidino-1-((2-(6-hydrazinylnicotinamido)ethyl)amino)-1-oxopentan-2-yl)-N^6-hydroxy-7-isobutyl-8-oxo-2-oxa-9-aza-1(1,4)-benzenacyclo undecaphane-6,10-dicarboxamide] |  | Ki (rhMMP-12 [1]): 2.2 ± 0.5 nM |
|  | 113 ± 4.1 | 0.4 | 0.6 | CNC(=O)[C@H](Cc1c[nH]c2ccccc12)NC(=O)[C@@H](CC(=O)NO)CC(C)C [GM-6001, reference compound] | very poor water solubility | Ki (rhMMP-13): 0.3 nM |
| 10000 (≈ 17.8 mM) | 4.9 ± 1.3 | 17.2 ± 0.1 | 1 ± 0.5 | CNC(=O)C(CCCNC(=N)N)NC(=O)C1Cc2ccc(cc2)OCCCC(C(=O)NO)C(CC(C)C)C(=O)N1 (centres unmarked) [RYM] |  | Ki (rhMMP-13; mean ± SD of three experiments, read-out: Ki rhMMP-13): 15.3 ± 5.4 nM; Ki (rhMMP-2): 5.8 ± 0.4 nM; Ki (rhMMP-9): 20.4 ± 2 nM |

The next lines start with the compound.

| SMILES | solubility (Water solubility) [µg/mL] | Ki [2] [nM] | Ki (rhMMP-7) [nM] | Ki (rhMMP-12 [4]) [nM] | water solubility (in words) [3] | also measured |
| --- | --- | --- | --- | --- | --- | --- |
| CNC(=O)[C@H](Cc1ccccc1)NC(=O)[C@H](CC(C)C)[C@H](CSc1cccs1)C(=O)NO [batimastat (BB-94), batimastat] |  |  |  |  | very poor water solubility |  |
| CC(C)CC1C(=O)NC(C(=O)NCc2ccc(CNC(=O)c3ccc(NN)nc3)cc2)Cc2ccc(cc2)OCCCC1C(=O)NO (centres unmarked) [RP805 precursor] |  |  |  |  | poor water solubility |  |
